What was measured:
[1] = tested on: oral ulcer induced by paclitaxel in rats; assay: Paclitaxel-induced oral ulcer model in rats (food intake, ulcer diameter); assay type: in vivo, SD rats; conditions: intraperitoneal once a day for 5 days
Protocol: Rats were anesthetized by intraperitoneal injection of 10% chloral hydrate solution. After anesthesia, the oral ulcer model induced by chemotherapeutic drugs was established by injecting 50 μl of 6 mg/ml paclitaxel injection into the right buccal mucosa of rats.
All animals with successful modeling were randomly divided into model group, (7 rats), anemoside B4 high dose (about 60 mg/kg*2) group (7 rats), and normal group (6 rats).
24 h after modeling, in anemoside B4 group, rectal administration was performed, 1 suppository/time, twice a day, for 5 successive days; in dexamethasone group, intraperitoneal administration was performed, once a day, for 5 successive days; and in model group, blank suppository was given.
(1) General observation: On the day of modeling, rats were fasted but free access to water for 12 hours, while the diet was given quantitatively on the second day after modeling, and the food intake of rats in each cage was measured daily from the third day after modeling (the second day after administration). (2) Measurement of ulcer surface diameter: from the 2nd day after modeling, the diameter of ulcer surface was measured with a vernier caliper and recorded for 7 successive days.

[2] = tested on: oral ulcer induced by acetic acid in rats; assay: Acetic acid-induced oral ulcer model in rats (body weight, food intake, ulcer diameter); assay type: in vivo, SD rats; conditions: 0.3 mg/kg intraperitoneal once a day
From the text: Rats were anesthetized by intraperitoneal injection of 10% chloral hydrate solution. After anesthesia, 3 mm×3 mm filter paper impregnated with 100% glacial acetic acid was clung to the right buccal mucosa of rats for 45 s. After cauterization for 45 s, a round or oval white lesion of the buccal mucosa in this area was observed, indicating successful modeling.
All animals with successful modeling were randomly divided into six groups according to the ulcer area: (1) model group, 14 rats; (2) Xilei powder (15 mg/kg) group, 12 rats; (3) dexamethasone (0.3 mg/kg) group, 13 rats; (4) anemoside B4 high dose (about 60 mg/kg*3, i.e. 14 mg/suppository, one suppository/time, 3 times/day) group, 14 rats; (5) anemoside B4 medium dose (about 30 mg/kg*3, i.e. 7 mg/suppository, one suppository/time, 3 times/day) group, 14 rats; (6) anemoside B4 low dose (about 15 mg/kg*3, i.e. 3.5 mg/suppository, one suppository/time, 3 times/day) group, 14 rats; and 6 rats were included in the normal group.
24 h after modeling, drug was administrated for 3 successive days, including: local administration in Xilei powder group, once a day; intraperitoneal injection in dexamethasone group, once a day; rectal administration in anemoside B4 group, 3 times a day, and administration of blank suppository in model group, 3 times a day.
(1) General observation: daily food intake per cage was measured from the 2nd day after modeling, and animal weight was measured every 2 days. (2) Measurement of ulcer surface diameter: on the 2nd, 4th and 5th day after modeling, the diameter of ulcer surface was measured with a vernier caliper and recorded.

`C[C@@H]1C[C@H]2[C@@H]3CCC4=CC(=O)C=C[C@]4(C)[C@@]3(F)[C@@H](O)C[C@]2(C)[C@@]1(O)C(=O)CO` [Dexamethasone] was tested, and the “Diameter of oral ulcers” value ([1]; the 2nd day after modeling) was 3.93 ± 0.48 mm, the “Diameter of oral ulcers” value ([1]; the 3rd day after modeling) was 4.00 ± 0.40 mm and the Food intake/rat ([1]; the 3rd day after modeling) was 13.78 ± 3.83 g. The “Diameter of oral ulcers” value ([1]; the 4th day after modeling) was 3.88 ± 0.58 mm, the Food intake/rat ([1]; the 4th day after modeling) was 10.61 ± 2.48 g and the “Diameter of oral ulcers” value ([1]; the 5th day after modeling) was 3.50 ± 0.87 mm. For the same compound, the Food intake/rat ([1]; the 5th day after modeling) was 13.91 ± 1.92 g, the “Diameter of oral ulcers” value ([1]; the 6th day after modeling) was 3.26 ± 0.84 mm and the Food intake/rat ([1]; the 6th day after modeling) was 19.84 ± 1.14 g. The “Diameter of oral ulcers” value ([1]; the 7th day after modeling) was 2.85 ± 0.81 mm, the Food intake/rat ([1]; the 7th day after modeling) was 18.79 ± 0.56 g and the Body weight ([2]; the 2nd day after modeling) was 230 + 8.3 g. For the same compound, the “Diameter of oral ulcer” value ([2]; the 2nd day after modeling) was 4.64 ± 0.38 mm, the “Food intake (g)/rat” value ([2]; the 3rd day after modeling) was 13.4 ± 3.35 g and the Body weight ([2]; the 4th day after modeling) was 216 + 9.2 g. For the same compound, the “Diameter of oral ulcer” value ([2]; the 4th day after modeling) was 3.16 ± 0.18 mm, the “Food intake (g)/rat” value ([2]; the 4th day after modeling) was 8.2 ± 2.39 g and the “Diameter of oral ulcer” value ([2]; the 5th day after modeling) was 2.78 ± 0.26 mm. The “Food intake (g)/rat” value ([2]; the 5th day after modeling) was 12.1 ± 4.70 g and the Body weight ([2]; the 6th day after modeling) was 213 + 13.7 g.
